“Also recorded” adds a separate entry of the source. One block for each compound: values may come before it.
Assays:
[1] = tested on: Tac2-expressing neurons in the CeA; assay: Gi-DREADD silencing of Tac2-expressing CeA neurons with CNO, fear conditioning and elevated plus maze; type: in vivo, mice
Protocol: Tac2-Cre^− or Tac2-Cre^+ mice were infected with the hM4Di-mCherry AAV in the CeA. The Gi receptor was inserted only on the Tac2-Cre cells of Tac2-Cre+mice, CeM=centro-medial amygdala, CeL=centro-lateral amygdala. CNO was given systemically 30 minutes prior to fear conditioning to Tac2-Cre-/hM4Di-mCherry and Tac2 Cre+/hM4DimCherry. […] Tac2-Cre-/hM4DimCherry vs Tac2-Cre+/hM4Di-mCherry. Tac2-Cre-/hM4Di-mCherry and Tac2-Cre+/hM4Di-mCherry mice were retrained to a different acoustic tone (CS) without receiving CNO.
To further understand the role of the Tac2 gene, the activity of neurons expressing this gene in the CeA were temporarily silenced during fear learning using designer receptors exclusively activated by designer drugs (DREADD) technology. The B6.129-Tac2tm1.1(cre) Qima/J (Tac2-cre) (Mar et al., Mol. Brain, 2012, 5, 3) mice were infected with a DREADD Gi-coupled receptor via the pAAV-hSyn-double floxed hM4D-mCherry virus (hM4Di-mCherry AAV). […] 14 days later, clozapine-N-oxide (CNO), which binds to the inserted receptor but otherwise is pharmacologically inert, was given systemically 30 minutes before FC in both groups, Tac2-Cre-/hM4Di-mCherry and Tac2-Cre+/hM4Di-mCherry. CNO had no effect on fear acquisition as shown by equivalent amount of freezing in both groups (FIG. 5A). […] Mice were then retrained with a different CS and a different context in the same FC apparatus, as in previous experiments but without dosing CNO.

mice [2] = assay: Fear conditioning in mice with LV-Tac2 or LV-GFP infused in the central amygdala, systemic osanetant; type: in vivo; conditions: systemic immediately after FC, tested 24 hours later
Source text: The lentivirus GFP-FUGW induces GFP expression but not Neurokinin B (NkB) in Hek293 cells. […] Tac2-FUGW or GFP-FUGW were bilaterally infused in the central amygdala and mice were left undisturbed for 14 days.
The lentiviruses GFP-FUGW and Tac2-FUGW causes no changes in fear conditioning. Osanetant or vehicle were given systemically immediately after fear acquisition.
A viral vector was developed to overexpress the Tac2 gene in an inducible fashion within the brain, the lentivirus-Tac2 (LV-Tac2). […] The behavioral effects of Tac2 overexpression was examined in mice. […] Mice infected with the LVTac2 or LV-GFP received systemic osanetant or vehicle immediately after FC, and then fear expression was tested 24 hours later. Specific CeA-Tac2 overexpression elicited a significant enhancement of fear memory consolidation. […] Additionally, the enhanced fear memory consolidation caused by CeA-Tac2 overexpression was reversed by osanetant (Post-hoc, **P≤0.01 vs LV-Tac2-Osa and LV-GFP-Osa FIG. 4D).

mice [3] = assay: Auditory cued fear conditioning and fear expression test, systemic osanetant; type: in vivo; conditions: dosed from 30 min before FC up to 1 hour after training; for fear memory consolidation, freezing in the fear expression test: vs vehicle
guinea-pigs = conditions: cited from earlier work
Nk3R = target: T1, Nk3R (Mus musculus, UniProt P47937); assay: Amygdala cell culture incubated with osanetant, Nk3R mRNA levels; type: cell-based; conditions: incubation with 20 μg and 40 μg of osanetant, vs Veh
T1 construct: endogenous in cells; host or cells: mouse amygdala cell culture (primary)
T1 sequence (P47937 1-452): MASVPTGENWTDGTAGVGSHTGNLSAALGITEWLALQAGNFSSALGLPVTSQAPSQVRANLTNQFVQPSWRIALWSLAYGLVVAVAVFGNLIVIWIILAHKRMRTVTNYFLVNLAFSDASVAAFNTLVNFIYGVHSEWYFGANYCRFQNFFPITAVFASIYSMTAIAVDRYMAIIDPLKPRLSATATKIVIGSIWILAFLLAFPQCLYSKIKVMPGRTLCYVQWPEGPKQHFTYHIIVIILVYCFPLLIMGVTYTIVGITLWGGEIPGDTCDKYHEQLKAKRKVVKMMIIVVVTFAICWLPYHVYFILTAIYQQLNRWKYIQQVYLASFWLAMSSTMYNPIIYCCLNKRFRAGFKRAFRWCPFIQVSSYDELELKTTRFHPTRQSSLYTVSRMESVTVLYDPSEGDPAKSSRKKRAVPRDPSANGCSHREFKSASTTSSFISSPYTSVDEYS
Source text: Moreover, NkB peptide is also highly expressed in the CeA. […] The Nk3R antagonist osanetant has already been used in humans in clinical trials for schizophrenia.

[4] = tested on: Pac1 receptor (Adcyap1r1); assay: Adcyap1r1 (PAC1 receptor) mRNA levels in the amygdala after fear conditioning; type: in vivo, mice; conditions: intraperitoneally 30 minutes before fear conditioning, vs Veh-FC
Source text: The PACAP-PAC1R pathway is associated with PTSD, fear conditioning and stress.
(§1) Recently, the PACAP-PAC1R pathway has been associated with PTSD in humans as well as in animal models. (See Stevens et al., 2014).

mice [5] = assay: Elevated plus maze, systemic osanetant 30 minutes before; type: in vivo; conditions: 30 minutes before elevated plus maze
Protocol: (§2) Different cohorts of mice received systemic osanetant 30 minutes before open field, elevated plus maze or fear conditioning in the startle chamber.
FIG. 6C time in open arms,
FIG. 6D entries in open arms, and
FIG. 6E time in closed arms in the elevated plus maze.
(§3) The above studies indicate that osanetant would target the Nk3R in the amygdale in vivo. Osanetant given systemically, 30 minutes before open field, elevated plus maze and the conditioning chamber elicits no changes in anxiety-like behavior, locomotor activity or electric shock reactivity.

IMO treated mice = assay: Fear conditioning after immobilization to a wooden board (IMO), PTSD-like model; type: in vivo; conditions: systemic immediately after FC
Protocol: Veh=vehicle; Osa=osanetant.
Mice exposed for 2 hours to a severe one-time stressor, immobilization to a wooden board (IMO), present long-term PTSD-like symptoms: impaired fear extinction and spatial memory, and enhanced anxiety-like behaviors. Additionally, IMO in rats elicits alterations of the hypothalamic-pituitary-adrenal (HPA) axis which may be similar to the process initiating PTSD in humans.

mice [6] = assay: Shock reactivity in the startle chamber; type: in vivo; conditions: systemic, 30 minutes before testing in the startle chamber
Protocol: as §2, §3

mice [7] = assay: Open field, systemic osanetant 30 minutes before; type: in vivo; conditions: 30 minutes before open field
Protocol: as §2, §3

CeA-NK3R = target: T2, CeA-NK3R (Mus musculus, UniProt P47937); assay: Osanetant bilaterally injected into the central amygdala, cued-fear expression test; type: in vivo, mice; conditions: bilateral infusion in the CeA immediately after fear conditioning; vs vehicle
T2 construct: from tissue; host or cells: central amygdala of living mice (in vivo infusion)
T2 sequence (P47937 1-452): T1 sequence (P47937 1-452)
Source text: as §1

Compound: C[N+]1([O-])CCN(C2=Nc3cc(Cl)ccc3Nc3ccccc32)CC1 [CNO, clozapine-N-oxide]
- anxiety-like behavior, elevated plus maze ([1]; CNO 30 minutes before, both Tac2-Cre groups): equivalent levels; also recorded: no effect
- fear acquisition, freezing ([1]; CNO systemically 30 minutes before FC, Tac2-Cre-/hM4Di-mCherry and Tac2-Cre+/hM4Di-mCherry): no effect; also recorded: did not affect freezing during fear acquisition
- fear expression, freezing 24 hrs later in the absence of CNO ([1]; Tac2-Cre+/hM4Di-mCherry vs Tac2-Cre-/hM4Di-mCherry, CNO 30 minutes before FC): less freezing; also recorded: less conditioned fear
- pain sensitivity ([1]; given CNO, both Tac2-Cre groups): equivalent levels

- Adcyap1r1 (PAC1 receptor) mRNA levels in the amygdala [4]: impaired the enhancement of mRNA levels
- fear memory consolidation, freezing in the cued-fear expression test (CeA-NK3R): impaired fear memory consolidation
Compound: CC(=O)N(C)C1(c2ccccc2)CCN(CCC[C@]2(c3ccc(Cl)c(Cl)c3)CCCN(C(=O)c3ccccc3)C2)CC1 [osanetant, (R)-N-{{3-[1-Benzoyl-3-(3,4-dichlorophenyl)piperidin-3-yl]prop-1-yl}-4-phenylpiperidin-4-yl}-N-methylacetamine]
- enhanced fear memory consolidation caused by CeA-Tac2 overexpression (mice [2]; LV-Tac2 mice): reversed; also recorded: impairs this effect
- fear memory consolidation (mice [2]; control LV-GFP mice, vs LV-GFP-Veh): impaired fear memory consolidation
- fear acquisition (mice [3]): does not affect fear acquisition
- fear acquisition (mice [3]; listed as Osanetant): without affecting fear expression
- fear memory consolidation, freezing in the fear expression test (mice [3]): impairs fear memory consolidation; also recorded: impairs fear learning
- fear memory consolidation, freezing in the fear expression test (mice [3]; listed as Osanetant): impairs cued-fear memory; also recorded: impairs fear memory consolidation
- substance P-induced bronchial hyperreactivity (guinea-pigs): prevents
- Nk3R mRNA levels (Nk3R): dose-dependent enhanced Nk3R mRNA levels; also recorded: enhances Nk3R mRNA levels; also recorded: increases Nk3R mRNA levels
- Adcyap1r1 (PAC1 receptor) mRNA levels in the amygdala ([4]; listed as Osanetant): normalizes the levels; also recorded: prevented the up-regulation
- anxiety-like behavior in the elevated plus maze (time in open arms, entries in open arms, time in closed arms) (mice [5]): no effects
- anxiety-like behavior in the elevated plus maze (time in open arms, entries in open arms, time in closed arms) (mice [5]; listed as Osanetant): no changes; also recorded: did not modified anxiety-like behavior
- fear memory consolidation, freezing in the fear expression test (IMO treated mice): impaired memory consolidation
- fear memory consolidation, freezing in the fear expression test (IMO treated mice; listed as Osanetant): impaired fear memory consolidation
- electric shock reactivity (mice [6]): no effects; also recorded: Equivalent shock reactivity
- electric shock reactivity (mice [6]; listed as Osanetant): no changes
- anxiety-like behavior, time in the center of the open field (mice [7]): no effects
- locomotor activity, distance travelled in the open field (mice [7]): no effects; also recorded: equivalent distance travelled
- anxiety-like behavior, time in the center of the open field (mice [7]; listed as Osanetant): no changes; also recorded: did not modified anxiety-like behavior
- locomotor activity, distance travelled in the open field (mice [7]; listed as Osanetant): no changes
